Read-outs that look alike come from different tables or passages of the source.
Columns and labels:
[1] = biological target: PI3K-α (PIK3CA) in MDA-MB-453 cells (Homo sapiens, UniProt P42336); test: PI3K-Alpha Kinase (PIK3CA) activity in vitro cell based assay (AlphaLisa SureFire)
Description: PI3K-Alpha Kinase (PIK3CA) Activity In Vitro Cell Based Assay and Determining IC50 Values for Inhibitors
The MDA-MB-453 (ATCC-HTB-131) cell line was obtained from the American Type Culture Collection (Manassas, Va.). Cells were maintained in Dulbecco's Modified Eagle Media (DMVEM, Gibco 11965-092) supplemented with 10% Fetal Bovine Serum, heat inactivated (FBS HI, Gibco 10082-147), 1× non-essential amino acids (NEAA, Gibco 11140-050), and 1 mM sodium pyruvate (Gibco 11360-070). Cultures were maintained in a humidified incubator at 37° C. under […].
For compound testing in 0% FBS, MDA-MB-453 cells were seeded at a density of 1.5×10^4 cells per well in white 384-well plates in 20 μl of Minimum Essential Media (MEM) assay media with 1×NEAA, 1 mM sodium pyruvate, and 1 μg/mL human insulin (Sigma I9278). Compounds dissolved in 10 mM stock solutions in DMSO were serially diluted 1:3 in DMSO to generate a 10-point dilution series and plated using an acoustic liquid handler system (Echo 550 Series Liquid Handler, Labcyte). A 5× intermediate compound dilution plate in MEM with 1×NEAA and 1 mM sodium pyruvate (150 μM starting compound concentration in 1.5% DMSO) was then prepared. Five μl of the intermediate serially diluted compounds were added to the cell plate to final concentrations ranging from […] in 0.3% DMSO. 0.3% DMSO alone was used to establish the maximum (MAX) signal and GDC-0032 at a final concentration of 1 μM was used as a reference compound for the minimum (MIN) signal. After 3 hours treatment, the medium was removed, and the cells lysed in 10 μL of 1× SureFire Lysis buffer with shaking for 10 minutes at room temperature. The Acceptor Mix (Reaction Buffer 1+Reaction Buffer 2+Activation Buffer+SureFire Ultra Acceptor Beads) was prepared by diluting Activation buffer 25-fold in combined Reaction Buffer 1 and Reaction Buffer 2. The Acceptor beads were diluted 50-fold in the combined Reaction Buffers. Five μL of Acceptor Mix was added to each well, the plate was sealed and covered with foil and incubated for 1 hour at room temperature. The Donor Mix (dilution buffer+SureFire Ultra Donor Beads) was prepared by diluting Donor Beads 50-fold in dilution buffer. Five μL of the Donor Mix was added to each well and the plate sealed and covered with foil and incubated for 1 hour at room temperature in the dark. The plates were read on a Neo2 plate reader instrument from Biotek using standard AlphaLisa settings.
Compounds were tested in duplicate and the average % inhibition at each compound concentration was used to generate a single dose response curve. The data were processed using the Genedata-Screener tool. Relative IC50 values were determined using luminescence units by calculating percent inhibition with respect to the in-plate “MIN” (GDC-0032 reference control) and “MAX” (DMSO) controls. The data was analyzed using a 4-parameter nonlinear logistic equation (four-parameter logistic concentration-response curve):
Y=bottom+[(top−bottom)/1+(X/IC50)slope]
where Y=% inhibition, X=concentration of inhibitor, bottom=minimum value of y attained by curve-fit, top=maximum value of y attained by curve-fit and slope=steepness of curve at the IC50.
% Inhibition=[(signal at X−median Min)/(median Max−median Min)]×100
IC50: concentration of compound that reduces a given response (ligand binding, enzyme response) by 50%. Relative IC50: concentration giving half the compound's maximum response.
For IC50 values shown in Table B, “A” means IC50<50 nM; “B” means IC50 ranging between 50 nM and 100 nM; “C” means IC50 ranging between 100 nM and 500 nM; “D” means IC50>500 nM.

[2] = biological target: T1, human full length PIK3KA H1047R mutant (p110α/p85α complex) (Homo sapiens, UniProt P42336, H1047R); test: PI3K-Alpha Kinase (PIK3CA) biochemical activity, H1047R mutant (ADP-Glo); details: 20 uM ATP
T1 construct: Recombinant, catalytically active human full length PIK3KA Wild-type and H1047R mutant were purchased; 6xHis (N); purchased EMD Millipore Sigma 14-792M
T1 sequence (P42336 whole entry H1047R): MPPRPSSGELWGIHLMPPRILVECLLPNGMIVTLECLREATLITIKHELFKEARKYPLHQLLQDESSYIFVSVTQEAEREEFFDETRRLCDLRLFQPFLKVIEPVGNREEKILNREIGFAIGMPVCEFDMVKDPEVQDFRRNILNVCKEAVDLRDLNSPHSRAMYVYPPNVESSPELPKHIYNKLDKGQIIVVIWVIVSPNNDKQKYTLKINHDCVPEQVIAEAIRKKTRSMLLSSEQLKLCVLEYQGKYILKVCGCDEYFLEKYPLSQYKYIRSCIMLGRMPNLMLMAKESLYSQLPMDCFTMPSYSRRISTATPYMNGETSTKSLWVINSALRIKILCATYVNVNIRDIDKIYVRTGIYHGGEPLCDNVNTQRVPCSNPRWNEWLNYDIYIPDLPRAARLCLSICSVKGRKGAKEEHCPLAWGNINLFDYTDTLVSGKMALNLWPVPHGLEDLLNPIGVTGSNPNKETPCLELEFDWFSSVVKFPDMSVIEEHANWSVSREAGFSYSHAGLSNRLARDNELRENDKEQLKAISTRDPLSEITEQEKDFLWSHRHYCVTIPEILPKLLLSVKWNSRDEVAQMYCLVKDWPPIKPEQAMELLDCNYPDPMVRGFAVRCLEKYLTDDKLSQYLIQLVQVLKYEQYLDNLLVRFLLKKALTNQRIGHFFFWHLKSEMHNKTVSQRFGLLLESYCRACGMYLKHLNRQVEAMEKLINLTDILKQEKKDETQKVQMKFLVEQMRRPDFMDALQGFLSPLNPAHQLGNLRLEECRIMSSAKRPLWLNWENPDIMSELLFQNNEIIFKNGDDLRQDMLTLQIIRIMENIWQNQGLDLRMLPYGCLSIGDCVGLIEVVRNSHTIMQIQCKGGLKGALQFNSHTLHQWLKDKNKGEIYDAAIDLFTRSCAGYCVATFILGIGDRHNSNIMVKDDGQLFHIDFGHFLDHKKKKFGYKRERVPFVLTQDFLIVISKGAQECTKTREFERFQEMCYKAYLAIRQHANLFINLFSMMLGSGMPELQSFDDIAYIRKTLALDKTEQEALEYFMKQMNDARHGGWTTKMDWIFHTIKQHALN
T1 sequence (P27986 whole entry partner): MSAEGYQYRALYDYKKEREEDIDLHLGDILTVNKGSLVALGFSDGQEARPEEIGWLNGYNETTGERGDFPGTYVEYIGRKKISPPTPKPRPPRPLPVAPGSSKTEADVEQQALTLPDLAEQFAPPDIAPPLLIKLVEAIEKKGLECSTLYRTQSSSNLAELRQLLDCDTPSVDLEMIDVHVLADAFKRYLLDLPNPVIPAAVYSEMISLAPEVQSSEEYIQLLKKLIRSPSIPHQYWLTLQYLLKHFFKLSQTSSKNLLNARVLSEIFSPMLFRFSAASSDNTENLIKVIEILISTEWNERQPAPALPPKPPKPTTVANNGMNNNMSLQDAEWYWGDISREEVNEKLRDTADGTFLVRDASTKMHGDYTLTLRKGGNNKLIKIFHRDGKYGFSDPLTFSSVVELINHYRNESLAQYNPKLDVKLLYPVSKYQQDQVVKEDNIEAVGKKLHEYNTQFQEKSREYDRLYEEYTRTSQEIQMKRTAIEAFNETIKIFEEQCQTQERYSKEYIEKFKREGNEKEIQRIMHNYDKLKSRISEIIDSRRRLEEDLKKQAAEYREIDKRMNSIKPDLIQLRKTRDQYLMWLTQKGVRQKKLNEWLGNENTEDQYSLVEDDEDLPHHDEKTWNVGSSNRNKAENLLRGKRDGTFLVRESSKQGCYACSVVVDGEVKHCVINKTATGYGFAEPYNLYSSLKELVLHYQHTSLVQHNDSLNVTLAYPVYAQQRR
Procedure, shortened: (§1)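 ADP formation, measured by ADP-Glo luminescence after reaction to about 10% ATP conversion at 27° C., gives 10-point 4-parameter IC50 curves normalized to no-enzyme and DMSO controls. Lipid substrate was PIP2diC8 or Soy PI at 50 uM, with 20 uM ATP. WT or H1047R p110α/p85α complex (1-5 nM) was preincubated 1 h with compound.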

[3] = biological target: T2, human full length PIK3KA Wild-type (p110α/p85α complex) (Homo sapiens, UniProt P42336); test: PI3K-Alpha Kinase (PIK3CA) biochemical activity, wild-type (ADP-Glo); details: 20 uM ATP
T2 construct: Recombinant, catalytically active human full length PIK3KA Wild-type and H1047R mutant were purchased; 6xHis (N); purchased EMD Millipore Sigma 14-602M
Procedure, shortened: as §1

[4] = read-out: PI3K-α (PIK3CA) in vitro cell based assay IC50, 0% FBS, 3 hours treatment
[5] = 0% FBS, 3 hours treatment, read-out: PI3K-α (PIK3CA) in vitro cell based assay IC50

PI3K-α (PIK3CA) in MDA-MB-453 cells, sequence (P42336 whole entry): as the sequence (P42336 whole entry H1047R) above, with R1047H counted along it
PI3K-α (PIK3CA) in MDA-MB-453 cells, sequence (P27986 2-724, further chain): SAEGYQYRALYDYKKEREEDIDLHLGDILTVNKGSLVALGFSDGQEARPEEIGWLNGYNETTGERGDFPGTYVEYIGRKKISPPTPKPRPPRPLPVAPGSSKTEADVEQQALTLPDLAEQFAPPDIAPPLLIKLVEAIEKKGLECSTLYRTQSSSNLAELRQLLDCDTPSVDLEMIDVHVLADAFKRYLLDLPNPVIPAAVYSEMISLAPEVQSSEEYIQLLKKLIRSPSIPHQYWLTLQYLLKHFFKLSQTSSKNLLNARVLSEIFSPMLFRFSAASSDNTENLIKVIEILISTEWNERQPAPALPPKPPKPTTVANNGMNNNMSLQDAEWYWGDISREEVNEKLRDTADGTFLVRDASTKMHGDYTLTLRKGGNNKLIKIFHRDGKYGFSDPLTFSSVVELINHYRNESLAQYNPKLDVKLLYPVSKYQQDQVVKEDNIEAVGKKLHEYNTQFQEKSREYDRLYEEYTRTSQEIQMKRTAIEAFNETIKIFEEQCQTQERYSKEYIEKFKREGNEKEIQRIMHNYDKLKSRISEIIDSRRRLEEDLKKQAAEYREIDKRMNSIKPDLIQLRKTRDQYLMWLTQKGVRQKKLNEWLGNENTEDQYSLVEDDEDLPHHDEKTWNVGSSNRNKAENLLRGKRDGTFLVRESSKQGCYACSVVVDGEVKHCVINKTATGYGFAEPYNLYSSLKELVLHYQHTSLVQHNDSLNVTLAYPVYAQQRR

Row | SMILES | IC50 [1, 4] [µM] | IC50 ([2]; Soy PI lipid substrate) [µM] | IC50 [1, 5] [µM] | IC50 ([3]; Soy PI lipid substrate) [µM] | IC50 ([2]; PIP2diC8 lipid substrate) [µM] | IC50 ([3]; PIP2diC8 lipid substrate) [µM]
1 | Cc1cc(C(C)Nc2cccnc2C(=O)O)c2oc(-c3cccc(C(F)F)n3)c(C)c(=O)c2c1 (single isomer, unassigned; isomer 1) [Example 139, 3-[1-[2-[6-(Difluoromethyl)-2-pyridyl]-3,6-dimethyl-4-oxo-chromen-8-yl]ethylamino]pyridine-2-carboxylic acid; 2,2,2-trifluoroacetic acid, Isomer 1] | 0.1 to 0.5 | – | – | – | – | –
2 | Cc1cc(C(C)Nc2ccc(C)nc2C(=O)O)c2oc(-c3ccccn3)c(C)c(=O)c2c1 (single isomer, unassigned; isomer 1) [Example 122, 3-[1-[3,6-Dimethyl-4-oxo-2-(2-pyridyl)chromen-8-yl]ethylamino]-6-methyl-pyridine-2-carboxylic acid, Isomer 1] | – | < 0.5 | 0.05 to 0.1 | 5 to 10 | – | –
3 | Cc1cc(C(C)Nc2ccc(Cl)nc2C(=O)O)c2oc(-c3cccnc3)c(C)c(=O)c2c1 (single isomer, unassigned; isomer 1) [Example 115, 6-Chloro-3-[1-[3,6-dimethyl-4-oxo-2-(3-pyridyl)chromen-8-yl]ethylamino]pyridine-2-carboxylic acid, Isomer 1] | – | < 0.5 | < 0.05 | 0.5 to 1 | – | –
4 | COc1ccc(-n2cc(-c3cc(=O)c4cc(C)cc(C(C)Nc5ccccc5C(=O)O)c4o3)cn2)cn1 (single isomer, unassigned) [Example 81, 2-[1-[2-[1-(6-Methoxy-3-pyridyl)pyrazol-4-yl]-6-methyl-4-oxo-chromen-8-yl]ethylamino]benzoic acid, Isomer 2,2,2,2-trifluoroacetic acid] | 0.05 to 0.1 | 0.5 to 1 | – | 5 to 10 | – | –
5 | COc1cccc(-c2cc(=O)c3cc(C)cc(C(C)Nc4ccccc4C(=O)O)c3o2)n1 (single isomer, unassigned; isomer 1) [Example 21, 2-[1-[2-(6-Methoxy-2-pyridyl)-6-methyl-4-oxo-chromen-8-yl]ethylamino]benzoic acid, Isomer 1] | – | 5 to 10 | > 0.5 | > 10 | – | –
6 | COc1ncc(-c2cc(=O)c3cc(C)cc(C(C)Nc4ccccc4C(=O)O)c3o2)cn1 (single isomer, unassigned) [Example 5, 2-[1-[2-(2-Methoxypyrimidin-5-yl)-6-methyl-4-oxo-chromen-8-yl]ethylamino]benzoic acid] | – | – | > 0.5 | – | > 10 | > 10
7 | Cc1cc(C(C)Nc2ccccc2C(=O)O)c2oc(-c3cnn(-c4cccc(C#N)c4)c3)c(C)c(=O)c2c1 (single isomer, unassigned) [Example 74, 2-[1-[2-[1-(3-Cyanophenyl)pyrazol-4-yl]-3,6-dimethyl-4-oxo-chromen-8-yl]ethylamino]benzoic acid, Isomer 1,2,2,2-trifluoroacetic acid] | < 0.05 | < 0.5 | – | 0.5 to 1 | – | –
8 | Cc1cc(C(C)Nc2ccc(Cl)nc2C(=O)O)c2oc(-c3cccc(C(F)F)n3)c(C)c(=O)c2c1 (single isomer, unassigned; isomer 1) [Example 141, 6-Chloro-3-[1-[2-[6-(difluoromethyl)-2-pyridyl]-3,6-dimethyl-4-oxo-chromen-8-yl]ethylamino]pyridine-2-carboxylic acid, Isomer 1] | – | – | < 0.05 | – | – | –
9 | Cc1cc(C(C)Nc2ccccc2C(=O)O)c2oc(-c3cnn(-c4ccc(C#N)cc4)c3)c(C)c(=O)c2c1 (single isomer, unassigned) [Example 73, 2-[1-[2-[1-(4-Cyanophenyl)pyrazol-4-yl]-3,6-dimethyl-4-oxo-chromen-8-yl]ethylamino]benzoic acid, Isomer 1,2,2,2-trifluoroacetic acid] | 0.05 to 0.1 | < 0.5 | – | 0.5 to 1 | – | –
10 | Cc1cc(C(C)Nc2cccc(F)c2C(=O)O)c2oc(-c3ccccn3)c(C)c(=O)c2c1 (single isomer, unassigned; isomer 1) [Example 140, 2-[1-[3,6-Dimethyl-4-oxo-2-(2-pyridyl)chromen-8-yl]ethylamino]-6-fluoro-benzoic acid, Isomer 1] | – | – | 0.05 to 0.1 | – | – | –
11 | COc1cccc(-c2nnc(-c3cc(=O)c4cc(C)cc(C(C)Nc5ccccc5C(=O)O)c4o3)o2)c1 (single isomer, unassigned; isomer 2) [Example 84, 2-[1-[2-[5-(3-Methoxyphenyl)-1,3,4-oxadiazol-2-yl]-6-methyl-4-oxo-chromen-8-yl]ethylamino]benzoic acid, Isomer 2] | – | < 0.5 | 0.1 to 0.5 | 1 to 5 | – | –
12 | Cc1cc(C(C)Nc2ccccc2C(=O)O)c2oc(-c3cccnc3)c(C)c(=O)c2c1 (single isomer, unassigned; isomer 1) [Example 25, 2-[1-[3,6-Dimethyl-4-oxo-2-(3-pyridyl)chromen-8-yl]ethylamino]benzoic acid, Isomer 1] | – | < 0.5 | < 0.05 | 0.5 to 1 | – | –
13 | Cc1cc(C(C)Nc2ccc(F)cc2C(=O)O)c2oc(-c3cccnc3)c(C)c(=O)c2c1 (single isomer, unassigned; isomer 1) [Example 120, 2-[1-[3,6-Dimethyl-4-oxo-2-(3-pyridyl)chromen-8-yl]ethylamino]-5-fluoro-benzoic acid, Isomer 1] | – | < 0.5 | < 0.05 | 1 to 5 | – | –
14 | COc1ccc(-n2nncc2-c2cc(=O)c3cc(C)cc(C(C)Nc4ccccc4C(=O)O)c3o2)cc1OC (single isomer, unassigned) [Example 134, 2-[1-[2-[3-(3,4-Dimethoxyphenyl)triazol-4-yl]-6-methyl-4-oxo-chromen-8-yl]ethylamino]benzoic acid, Isomer 2,2,2,2-trifluoroacetic acid] | > 0.5 | – | – | – | – | –
15 | Cc1cc(C(C)Nc2ccccc2C(=O)O)c2oc(-c3cnn(C)c3)c(C)c(=O)c2c1 (single isomer, unassigned; isomer 1) [Example 136, 2-[1-[3,6-Dimethyl-2-(1-methylpyrazol-4-yl)-4-oxo-chromen-8-yl]ethylamino]benzoic acid, Isomer 1] | – | – | < 0.05 | – | – | –
16 | Cc1cc(C(C)Nc2ccc(Cl)nc2C(=O)O)c2oc(-c3cncc(F)c3)c(C)c(=O)c2c1 (single isomer, unassigned; isomer 1) [Example 138, 6-Chloro-3-[1-[2-(5-fluoro-3-pyridyl)-3,6-dimethyl-4-oxo-chromen-8-yl]ethylamino]pyridine-2-carboxylic acid, Isomer 1] | – | – | < 0.05 | – | – | –
17 | COc1ccc(-n2cc(-c3cc(=O)c4cc(C)cc(C(C)Nc5ccccc5C(=O)O)c4o3)nn2)cc1OC (single isomer, unassigned) [Example 133, 2-[1-[2-[1-(3,4-Dimethoxyphenyl)triazol-4-yl]-6-methyl-4-oxo-chromen-8-yl]ethylamino]benzoic acid, Isomer 2,2,2,2-trifluoroacetic acid] | 0.1 to 0.5 | – | – | – | – | –

Source: patent US20230014445A1, “ALLOSTERIC CHROMENONE INHIBITORS OF PHOSPHOINOSITIDE 3-KINASE (PI3K) FOR THE TREATMENT OF DISEASE” (Petra Pharma Corporation, priority 2021, published 2023)
